Literature values in patent US11304951B1 (Janssen Pharmaceutica NV, priority 2020, dated 2022).

water solubility: extreme low water solubility
SMILES: CCCCCCCCCCCCCCCC(=O)OC1CCCn2c1nc(C)c(CCN1CCC(c3noc4cc(F)ccc34)CC1)c2=O (racemic) [paliperidone palmitate, (±)-3-[2-[4-(6-fluoro-1,2-benzisoxazol-3-yl)-1-piperidinyl]ethyl]-6,7,8,9-tetrahydro-2-methyl-4-oxo-4H-pyrido[1,2-c]pyrimidin-9-yl hexadecanoate]
